Data set [1] relates to histone markers H3K27Ac and H3K9Me3 in the retina. The data set is described as follows: Chromatin modification in the retina after intravitreal injection (antibody staining of histone markers). The data set is classed as in vivo, mouse. The settings on record: FIG. 2. The text has this: The outer nuclear layers (ONL) and the inner nuclear layers (INL) of the respective retina are shown. Markers related to reduced levels of histone acetylation (H3K27Ac) and increased levels of histone […] are identified with corresponding antibodies.
Further evidence is provided that HATi are useful for chromatin modifications that lead to epigenomic manipulation, thereby leading to regeneration of retinal cells. […] Upon intravitreal injection of the compound SYC1127, there is reduction in the level of histone acetylation as expected, such as with H3K27Ac (an epigenetic modification to Histone H3 that is a mark that indicates the acetylation at the 27th lysine residue of the Histone H3 protein). At the same time, the level of chromatin-repressing histone markers, such as H3K9Me3, is increased.

The next data set concerns wild-type control retina. The data set is described as follows: Intravitreal injection in wild-type control retina (H&E). The data set is classed as in vivo. As to the method: (§1) FIGS. 1A-1C concern an example of retinal regeneration in Spata7-mutated (KO) retinal cells. (1A) One example of a timeline for studies, where the examples of timepoints are post-natal day 14, 21, and 34, respectively. (1B) Hematoxylin and eosin (H&E) staining for Spata7 KO mice versus wild-type control. Eyes were injected with SYC1127 (treated) eye compared to PBS-injected control. (1C) Immunofluorescence staining for Cone-rod homeobox protein (CRX, a marker for photoreceptor cells and bipolar cells); Glial fibrillary acidic protein (GFAP, a marker for Müller glial cells); and RNA Binding Protein, MRNA Processing Factor (RBPMS, a marker for retinal ganglion cells (RGC)) in Spata7 KO-treated eye (treated with SYC1127) and control eye (treated with PBS).
(§2) H&E staining of all three neural layers of the retina is shown following intravitreal injection of SYC1127 in wild-type mice vs. Spata7 KO mutants.
In this present example, one example of a potent Histone Acetylation Transferase inhibitor (HATi), the compound SYC1127, is administered by intravitreal injection in a retinal degeneration mouse model having a knockout mutation in Spata7. An example of an injection regimen is provided in FIG. 1A, in which there are multiple intravitreal injections. […]

Another data set has as its system Spata7 mutant retina. The data set is described as follows: Intravitreal injection in Spata7 knockout retinal degeneration mouse model (H&E, immunohistochemistry). In kind it is in vivo. Here is the method: as §1, §2
Immunohistochemistry using antibodies that bind Sox9 or GFAP, both markers of Müller glial cells, is provided for SYC1127-treated Spata7 KO mutants vs. PBS controls.
In this present example, one example of a potent Histone Acetylation Transferase inhibitor (HATi), the compound SYC1127, is administered by intravitreal injection in a retinal degeneration mouse model having a knockout mutation in Spata7. An example of an injection regimen is provided in FIG. 1A, in which there are multiple intravitreal injections. […] To examine if these newly generated cells are indeed differentiated properly, immunohistochemistry (IHC) using antibodies against certain cell type-specific markers is performed. […] The number of regenerative cells is much higher than that of previously reported by others, making it useful for therapy.
Retinal regeneration is induced through epigenomics manipulation, in particular embodiments. […] As at least one type of retinal cells, retinal ganglion cells are induced following administration of SYC1127.

“Also recorded” adds a separate entry of the source.

`c1cc(-c2ccc(-c3ncc(OCC4CCNCC4)nc3-c3ccc(-c4ccoc4)cc3)cc2)co1` [SYC1127, 2,3-bis(4-(furan-3-yl)phenyl)-5-(piperidin-4-ylmethoxy)pyrazine]: in data set [1], the “level of chromatin-repressing histone markers (H3K9Me3)” value is reported as “increased” and the “level of histone acetylation (H3K27Ac)” value is “reduction”. In the data set with wild-type control retina (FIG. 1B), the “toxicity of injection of the drug” value is listed as “not toxic”. In addition, in the data set with wild-type control retina (wild-type, FIG. 1B / FIG. 3), the “change in wild-type control retina” value is “little change; also recorded: no changes are observed”. Also, in the data set on Spata7 mutant retina (Spata7 KO, IHC, FIG. 5), the “migration of Müller glial cells” value was “Migration of Müller glial cells from the INL to photoreceptor and retinal ganglion cell layers”; the “number of Müller glial cells (Sox9 positive cells and GFAP staining)” value is recorded as “Increase in the number of Müller glial cells”. In addition, the “thickness of neuronal layers vs uninjected Spata7 mutant retina” value in the data set on Spata7 mutant retina (intravitreal injection, H&E, FIG. 1B) is reported as “thickening of all three neuronal layers”. Besides, the “cell proliferation in Spata7 mutant retina” value in the data set on Spata7 mutant retina (intravitreal injection, H&E, FIG. 1B / FIG. 3) is “extensive cell proliferation; also recorded: proliferation of all three neural layers of the retina”. For the same compound, the “Müller glia cell activation (GFAP staining)” value with Spata7 mutant retina (intravitreal injection, IHC, FIG. 1C) is reported as “massive elevated Müller glia cell activation”. In the data set with Spata7 mutant retina (intravitreal injection, IHC, FIG. 1C / FIG. 4), the “retinal ganglion cells (RBPMS staining)” value is recorded as “multiple layers of cells that are positive for retinal ganglion cells (RGC) are observed; also recorded: increase of cells in the RGC layer”. For the same compound, the “regeneration of retinal neurons in degenerating retina” value in the data set on Spata7 mutant retina (intravitreal injection, overall conclusion) is “complete regeneration of retinal neurons”.

These data come from patent publication US20220362219A1, “RETINA REGENERATION THROUGH EPIGENETICS MANIPULATION” (Baylor College of Medicine, priority 2019, published 2022).
